{"source": "patent US20090197929A1", "about": "“Azolylmethyloxiranes, Their Use for Controlling Phytopathogenic Fungi and Agents Containing Said Compounds” (BASF SE, priority 2006, published 2009)", "key": {"[1]": {"system": "Puccinia recondita", "assay": "Protective activity against Puccinia recondita on wheat (brown rust of wheat) (Puccrt P1)", "format": "in vivo", "details": "250 ppm active compound, potted wheat seedlings sprayed to runoff, inoculated next day; untreated plants 90% infected", "protocol": "The active compounds were prepared separately or jointly as a stock solution comprising 25 mg of active compound which was made up to 10 ml using a mixture of acetone and/or DMSO and the emulsifier Wettol EM 31 (wetting agent having emulsifying and dispersing action based on ethoxylated alkylphenols) in a volume ratio of solvent/emulsifier of 99:1. The mixture was then made up to 100 ml with water. This stock solution was diluted with the solvent/emulsifier/water mixture described to give the concentration of active compound stated below. Leaves of potted wheat seedlings were sprayed to runoff point with an aqueous suspension having the active compound concentration stated below. The next day, the treated plants were inoculated with a spore suspension of brown rust of wheat (Puccinia recondita). The plants were then placed in a chamber with high atmospheric humidity (90 to 95%) at 20 to 22° C. for 24 hours. During this time, the spores germinated and the germ tubes penetrated into the leaf tissue. The next day, the test plants were returned to the greenhouse and cultivated at temperatures between 20 and 22° C. and at 65 to 70% relative atmospheric humidity for a further 7 days. The extent of the rust fungus development on the leaves was then determined visually."}, "[2]": {"system": "Pyrenophora teres", "assay": "Activity against net blotch of barley caused by Pyrenophora teres at 1 day protective application (Pyrnte P1)", "format": "in vivo, Pyrenophora [syn. Drechslera] teres on barley", "details": "250 ppm active compound, potted barley seedlings sprayed to runoff, inoculated after 24 hours, assessed after 6 days; untreated plants 90% infected", "protocol": "The active compounds were prepared separately or jointly as a stock solution comprising 25 mg of active compound which was made up to 10 ml using a mixture of acetone and/or DMSO and the emulsifier Wettol EM 31 (wetting agent having emulsifying and dispersing action based on ethoxylated alkylphenols) in a volume ratio of solvent/emulsifier of 99:1. The mixture was then made up to 100 ml with water. This stock solution was diluted with the solvent/emulsifier/water mixture described to give the concentration of active compound stated below. Leaves of potted barley seedlings were sprayed to runoff point with an aqueous suspension having the active compound concentration stated below. 24 hours after the spray coat had dried on, the test plants were inoculated with an aqueous spore suspension of Pyrenophora [syn. Drechslera] teres, the net blotch pathogen. The test plants were then placed in a greenhouse at temperatures between 20 and 24° C. and at 95 to 100% relative atmospheric humidity. After 6 days, the extent of the development of the disease was determined visually in % infection of the entire leaf area."}}, "data": [{"smiles": "Fc1ccc([C@@]2(Cn3cncn3)O[C@@H]2c2cc(Cl)sc2Cl)cc1", "note": "(racemic) [1-{[(2SR,3RS)-3-(2,5-dichlorothiophen-3-yl)-2-(4-fluorophenyl)oxiran-2-yl]methyl}-1H-1,2,4-triazole]", "values": [{"measurement": "infection (extent of rust fungus development on the leaves, determined visually)", "setting": "[1]", "value": 0, "unit": "%"}, {"measurement": "infection (% infection of the entire leaf area, determined visually)", "setting": "[2]", "value": 15, "unit": "%"}]}]}
